From US7674795B2, “Fluorene derivatives, composition containing said derivatives and the use thereof” (Aventis Pharma SA, priority 2005, dated 2010)
pIC50: −log10 of the molar value. Where a name gives a salt, the structure may show the parent alone.

Experiments:
Hsp82 = Hsp82 (Saccharomyces cerevisiae, UniProt P02829); test: PK/LDH enzyme coupling test of the ATPase activity of Hsp82 (NADH decrease at 340 nm); assay type: biochemical; settings: 1 μM Hsp82, 250 μM ATP, 37° C., pyruvate kinase/lactate dehydrogenase coupling, read-out: Hsp82 ATPase IC50
Procedure, shortened: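 Yeast Hsp82 ATPase was coupled to PK/LDH, with ADP formation followed continuously as NADH loss at 340 nm at 37 °C. The mixture was preincubated 30 min at 37 °C, and the reaction was started with compound at variable concentrations plus Hsp82 at 1 μM. Initial rates (μM ADP/min) came from the tangent slope at origin, expressed as % inhibition.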

Hsp82, sequence (P02829 whole entry): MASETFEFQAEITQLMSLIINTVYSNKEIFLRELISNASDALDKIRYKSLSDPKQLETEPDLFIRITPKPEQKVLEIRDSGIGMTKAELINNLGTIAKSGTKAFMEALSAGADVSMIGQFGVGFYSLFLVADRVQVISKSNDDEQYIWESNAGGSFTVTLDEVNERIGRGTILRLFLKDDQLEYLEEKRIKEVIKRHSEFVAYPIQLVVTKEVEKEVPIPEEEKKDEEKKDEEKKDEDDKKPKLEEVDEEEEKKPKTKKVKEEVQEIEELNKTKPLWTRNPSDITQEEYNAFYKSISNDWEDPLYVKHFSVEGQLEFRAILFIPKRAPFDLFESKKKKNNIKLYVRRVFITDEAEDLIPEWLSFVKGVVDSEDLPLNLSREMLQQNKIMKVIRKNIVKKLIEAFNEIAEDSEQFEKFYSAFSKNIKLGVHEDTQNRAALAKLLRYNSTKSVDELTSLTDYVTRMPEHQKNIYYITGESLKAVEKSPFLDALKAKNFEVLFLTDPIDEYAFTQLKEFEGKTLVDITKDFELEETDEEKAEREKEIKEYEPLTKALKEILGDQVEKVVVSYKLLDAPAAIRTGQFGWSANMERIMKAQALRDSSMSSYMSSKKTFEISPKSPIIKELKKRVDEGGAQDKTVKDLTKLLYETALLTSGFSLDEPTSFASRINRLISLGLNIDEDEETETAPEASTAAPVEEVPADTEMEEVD

`NC1c2ccccc2-c2c(-c3nc4ccc(F)cc4[nH]3)cccc21` (racemic) [Example 71, 4-(6-fluoro-1H-benzimidazol-2-yl)-9H-fluoren-9(R,S)-ylamine] gave a pIC50 (Hsp82) of 4.00 to 5.00 and a melting point of 170 to 172 °C.
In the case of `O=C(NC1c2ccccc2-c2c(-c3nc4ccncc4[nH]3)cccc21)c1c[nH]c2ncccc12` (racemic) [Example 99, [4-(3H-imidazo[4,5-c]pyridin-2-yl)-9H-fluoren(R,S)-9-yl]amide of 1H-pyrrolo[2,3-b]pyridine-3-carboxylic acid], the pIC50 (Hsp82) was > 6.00 and the melting point was 225 °C (dec.).
In the case of `Cn1cc(C(=O)NC2c3ccccc3-c3c(-c4nc5ccncc5[nH]4)cccc32)c2cccnc21` (racemic) [Example 101, [4-(3H-imidazo[4,5-c]pyridin-2-yl)-9H-fluoren-9(R,S)-yl]amide of 1-methyl-1H-pyrrolo[2,3-b]pyridine-3-carboxylic acid], the pIC50 (Hsp82) was 5.00 to 6.00 and the melting point was 204 °C (dec.).
With `O=C(NC1c2ccccc2-c2c(-c3nc4cnccc4[nH]3)cccc21)c1cccc2ncccc12` (racemic) [Example 14, [4-(3H-imidazo[4,5-c]pyridin-2-yl)-9H-fluoren-9(R,S)-yl]amide of quinoline-5-carboxylic acid] the pIC50 (Hsp82) was > 6.00 and the melting point was 254 to 258 °C (dec.).
In the case of `O=C(NC1c2ccccc2-c2c(-c3nc4ccncc4[nH]3)cccc21)c1cccc2[nH]ncc12` (racemic) [Example 111, [4-(3H-imidazo[4,5-c]pyridin-2-yl)-9H-fluoren-9(R,S)-yl]amide of 1H-indazole-4-carboxylic acid], the pIC50 (Hsp82) was > 6.00 and the melting point was 230 to 235 °C.
In the case of `Cc1cc(C(=O)NC2c3ccccc3-c3c(-c4nc5ccncc5[nH]4)cccc32)cc(Cl)n1` (racemic) [Example 123, 2-chloro-N-[4-(3H-imidazo[4,5-c]pyridin-2-yl)-9H-fluoren-9(R,S)-yl]-6-methyl-isonicotinamide], the pIC50 (Hsp82) was 5.00 to 6.00 and the melting point was 250 °C.
With `O=C1c2ccccc2-c2c1cccc2-c1nc2cnccc2[nH]1` [Example 1, 4-(3H-imidazo[4,5-c]pyridin-2-yl)-fluoren-9-one] the pIC50 (Hsp82) was 5.00 to 6.00 and the melting point was 236 to 238 °C.
With `COc1ccc(C(=O)NC2c3ccccc3-c3c(-c4nc5ccncc5[nH]4)cccc32)cc1` (racemic) [Example 127, N-[4-(3H-imidazo[4,5-c]pyridin-2-yl)-9H-fluoren-9(R,S)-yl]-4-methoxybenzamide] the melting point was 194 °C.
`O=C(NCc1ccc(F)cc1)NC1c2ccccc2-c2c(-c3nc4ccncc4[nH]3)cccc21` (racemic) [Example 75, 1-(4-fluorobenzyl)-3-[4-(3H-imidazo[4,5-c]pyridin-2-yl)-9H-fluoren-9(R,S)-yl]-urea] showed a pIC50 (Hsp82) of 4.00 to 5.00.
With `c1cncc(CON=C2c3ccccc3-c3c2cccc3-c2nc3cnccc3[nH]2)c1` (mixture of isomers) [Example 11, O-(pyridin-3-yl)methyl 4-(3H-imidazo[4,5-c]pyridin-2-yl)-fluoren-9-one oxime (Z, E)] the pIC50 (Hsp82) was 5.00 to 6.00.
`O=C(NC1c2ccccc2-c2c(-c3nc4ccncc4[nH]3)cccc21)c1cccc2c1C=CCO2` (racemic) [Example 38, [4-(3H-imidazo[4,5-c]pyridin-2-yl)-9H-fluoren-9(R,S)-yl]amide trifluoroacetate of 2H-1-benzopyran-5-carboxylic acid] showed a pIC50 (Hsp82) of 5.00 to 6.00.
For `O=C(OC1c2ccccc2-c2c(-c3nc4ccncc4[nH]3)cccc21)c1cccc2ncccc12` (racemic) [Example 124, 4-(3H-imidazo[4,5-c]pyridin-2-yl)-9H-fluoren-9(R,S)-yl of 5-quinolinecarboxylic acid], the pIC50 (Hsp82) was 5.00 to 6.00.
`O=C1CNC(=O)N1C1c2ccccc2-c2c(-c3nc4ccncc4[nH]3)cccc21` (racemic) [Example 80, 3-[4-(3H-imidazo[4,5-c]pyridin-2-yl)-9H-fluoren-9(R,S)-yl]-imidazolidine-2,4-dione] showed a pIC50 (Hsp82) of 4.00 to 5.00.
Compound `O=C(NCc1ccco1)NC1c2ccccc2-c2c(-c3nc4ccncc4[nH]3)cccc21` (racemic) [Example 74, 1-furan-2-ylmethyl-3-[4-(3H-imidazo[4,5-c]pyridin-2-yl)-9H-fluoren-9(R,S)-yl]-urea] has a pIC50 (Hsp82) of 4.00 to 5.00.
For `O=C(N[C@H]1c2ccccc2-c2c(-c3nc4ccncc4[nH]3)cccc21)c1cccc2ncccc12` (single isomer, unassigned) [Example 14A], the pIC50 (Hsp82) was > 6.00.
